Source: PMC9131871, “Impact of Micropolymorphism Outside the Peptide Binding Groove in the Clinically Relevant Allele HLA-C*14 on T Cell Responses in HIV-1 Infection” (Journal of Virology, 2022)

The sequences below were run against HLA-C*14:02 (Homo sapiens, UniProt P10321, A176E/A330V/A35S/A97T/C350S/D114A/D33S/L171W/L180R/L218V/M285V/M309V/M331V/P208H/Q277E/Q291P/R121W/R243W/S123F/S297R/S48A/T329A/T363A/V319A) (assay: LC-MS/MS identification of HLA-bound HIV-1 peptides from NL4-3-infected .221-C1402 cells). Conditions: HIV-1 NL4-3-infected .221-C1402 cells, W6/32 immunoprecipitation, two independent replicate experiments.
Format: binding
Design: key: ●: Closed circles indicate the peptide which was identified in HLA-C*1402 or/and -C*1403 expressing cells
Protocol: 721.221 cells expressing CD4 and HLA-C*14:02 (.221-C1402) or HLA-C*14:03 (.221-C1403) were infected with the laboratory-adapted NL4-3 HIV-1 strain. HLA-peptide complexes were isolated from cell lysates by immunoprecipitation with the anti-HLA class I antibody W6/32; then, peptides were eluted, fractionated by high-performance liquid chromatography (HPLC), and finally analyzed by LC-MS/MS. Two independent replicate experiments were performed, in which a total of 7,970 and 8,447 unique 8- to 13-mer peptide sequences were identified from .221-C1402 and .221-C1403 cells, respectively (Fig. 1A). Of these peptides, 6,163 were identified in both the C*14:02- and C*14:03-bound peptide data sets, while other peptides were detected in the acid-eluted fraction from only a single allele. […] These motifs are consistent with the HLA-C*1402/03 peptide motifs previously estimated using reported epitopes ([29]).
.221-C1402 and .221-C1403 cells were infected with HIV-1 NL4-3 in a low volume of RPMI 1640 medium (Thermo Fisher) containing 10% fetal bovine serum (FBS), 2 mM L-glutamine, 100 U/mL penicillin, 100 μg/mL streptomycin, and 10 mM HEPES (R10). Fifty microliters of NL4-3 stock virus (Reverse transcriptase activity (RT) value = 4 × 10^2 ng/mL) was added to 8 × 10^6 .221-C1402 cells or .221-C1403, and the cells were then incubated for 1.5 h at 37°C, after which 20 mL of R10 was added and the cells were cultured overnight. At day 1 postinfection, a further 20 mL R10 was added, and cells were split (1:2) on day 2. On day 3 postinfection, the proportion of cells infected with HIV-1 was determined by intracellular p24 staining, as previously described ([46]). Infected flasks were then harvested for immunoprecipitation of HLA-peptide complexes.
.221-C1402 cells or .221-C1403 cells infected with NL4-3 (1.5 × 10^8 to 2 × 10^8 cells) were harvested, washed in phosphate-buffered saline (PBS), and lysed in 5 mL of lysis buffer (1% IGEPAL 630, 300 mM NaCl, 100 mM Tris [pH 8.0], plus protease inhibitors) at 4°C for 45 min. Two centrifugation steps (2,000 × g for 10 min followed by 20,000 × g for 30 min at 4°C) were next employed to clear the lysates of cell debris prior to overnight capture of HLA-peptide complexes on W6/32-coated protein A‐Sepharose beads. W6/32-bound HLA-peptide complexes were sequentially washed with 10 to 20 mL of wash buffer 1 (0.005% IGEPAL, 50 mM Tris [pH 8.0], 150 mM NaCl, 5 mM EDTA), wash buffer 2 (50 mM Tris [pH 8.0], 150 mM NaCl), wash buffer 3 (50 mM Tris [pH 8.0], 400 mM NaCl), and finally wash buffer 4 (50 mM Tris [pH 8.0]) under gravity flow in Econo-Column glass chromatography columns (Bio-Rad). Peptide-HLA complexes were eluted from the beads with 5 mL of 10% acetic acid and, after drying under vacuum, were loaded onto a 4.6- by 50-mm ProSwift RP-1S column (Thermo Fisher Scientific) and eluted from an Ultimate 3000 HPLC system (Thermo Scientific) using a 500-μL/min flow rate over 10 min from 2% to 34% buffer B (0.1% trifluoroacetic acid [TFA] in acetonitrile) in buffer A (0.1% TFA in water). Alternate fractions were pooled to give two final peptide fractions that were dried for LC-MS/MS analysis.
Each HPLC-eluted sample was resuspended in 20 μL loading buffer, and 9 μL of it was injected onto a 3-μm-particle-size 0.075-mm by 150-mm Acclaim PepMap RSLC C18 column and further loaded onto a 2-μm-particle-size, 75-μm by 50-cm Acclaim PepMap RSLC C18 column using an Ultimate 3000 nUPLC system (Thermo Scientific). A linear gradient of 3 to 25% buffer B (0.1% formic acid, 5% dimethyl sulfoxide [DMSO] in acetonitrile) in buffer A (0.1% formic acid, 5% DMSO in water) was applied over 1 h to elute peptides from the column (flow rate of […]). Peptides were introduced, using an Easy-Spray source at 2,000 V at 40°C, into a Fusion Lumos mass spectrometer (Thermo Scientific). The ion transfer tube temperature was set to 305°C. […]
For YFPDWQNYT [Nef YT9], the “C1402: peptide identified by LC-MS/MS in HLA-I eluate” value (from here on “C1402: peptide identified by LC-MS/MS”) was “●”. LYNTIAVLY [Gag LY9] was tested, and the “C1402: peptide identified by LC-MS/MS” value was “●”. In the case of IYHTQGYF [Nef IF8], the “C1402: peptide identified by LC-MS/MS” value is reported as “●”. KYHSNWRAM [Pol KM9] was tested, and the “C1402: peptide identified by LC-MS/MS” value was “●”. In the case of AFHHVAREL [Nef AL9], the “C1402: peptide identified by LC-MS/MS” value is reported as “●”. For “VYYDPSKDL [Pol VYL9, HIV-1 NL4-3 Pol 472–480 peptide …]”, the “C1402: peptide identified by LC-MS/MS” value was “●”. In the case of “FLGAAGSTM [Env FM9, HIV-1 NL4-3 Env 522–530 peptide …]”, the “C1402: peptide identified by LC-MS/MS” value is reported as “●”. In the case of “RFDSRLAF [Nef RF8, HIV-1 NL4-3 Nef 184–191 peptide RFDSRLAF]”, the “C1402: peptide identified by LC-MS/MS” value is reported as “●”. In the case of AFSPEVIPM [Gag AM9], the “C1402: peptide identified by LC-MS/MS” value is reported as “●”.
